In patent publication US10596150B2, “Antifungal agents” (F2G LIMITED, priority 2014, dated 2020):
Converted amounts (≈) assume the structure as drawn.

How the values were obtained:
Test in all cases: Minimum Inhibitory Concentration (MIC), RPMI medium
Format in all cases: cell-based
A. flavus = details: Aspergillus flavus, >80% growth inhibition
Description: (§1) Between 1 and 5 mgs of the compound were accurately weighed out into a sterile Eppendorf tube. The compound was dissolved in DMSO to give a solution containing 5 mg/mL. Tubes were stored at −20° C. until required.
(§2) On the day of testing thawed solutions were vortex mixed to ensure homogeneity. 30 μL of solution was removed and added to 570 μL of sterile water in a separate sterile Eppendorf. The thoroughly mixed solution was used to prepare a series of doubling dilutions in water, in a deep well plate. Thirteen replicate plates were prepared using a Minitrak by aspirating 20 μL from each well into eleven clear polystyrene 96 well plates.
(§3) Spores of Aspergillus and Scedosporium were harvested from cultures grown on Sabarauds agar for 5 days, and resuspended in PBS/Tween 80 to approx 1×10^7 cfu/mL. Each organism suspension was diluted in RPMI medium, containing 2% glucose and 0.135 M MOPS buffer (pH 7.0) to 0.5-2×10^4 cfu/mL. 80 μL of an organism suspension was added to each well of the plate containing drug dilutions.
(§4) This produced MIC plates with a drug range 50-0.05 mg/L and organism inocula of 1-2×10^4 cfu/mL. All plates were incubated for 24-48 h at 35° C. Growth was assessed by monitoring the optical density at 485 nm for each well. The MIC of a compound is the lowest drug concentration that inhibits growth of an organism by >80% compared with a drug free control.

A. fumigatus 210 = details: Aspergillus fumigatus, >80% growth inhibition
Description: as §1, §2, §3, §4

A. fumigatus = details: Aspergillus fumigatus, >80% growth inhibition
Description: as §1, §2, §3, §4

A. niger = details: Aspergillus niger, >80% growth inhibition
Description: as §1, §2, §3, §4

A. terreus 49 = details: Aspergillus terreus, >80% growth inhibition
Description: as §1, §2, §3, §4

A. terreus = details: Aspergillus terreus, >80% growth inhibition
Description: as §1, §2, §3, §4

[1] = system: Scedosporium apiospermum 13486
Description: as §1, §2, §3, §4

[2] = system: Scedosporium apiospermum 15848
Description: as §1, §2, §3, §4

[3] = system: Scedosporium apiospermum 451
Description: as §1, §2, §3, §4

[4] = system: Scedosporium apiospermum 4883
Description: as §1, §2, §3, §4

[5] = system: Scedosporium apiospermum 7935
Description: as §1, §2, §3, §4

[6] = system: Scedosporium apiospermum 8353
Description: as §1, §2, §3, §4

[7] = system: Scedosporium prolificans 18389; details: Lomentospora prolificans
Description: as §1, §2, §3, §4

[8] = system: Scedosporium prolificans 206; details: Lomentospora prolificans
Description: as §1, §2, §3, §4

[9] = system: Scedosporium prolificans 6322; details: Lomentospora prolificans
Description: as §1, §2, §3, §4

[10] = system: Scedosporium species 15849
Description: as §1, §2, §3, §4

Structure (SMILES)	MIC (A. flavus) [µg/mL]	MIC (A. fumigatus 210) [µg/mL]	MIC (A. fumigatus) [µg/mL]	MIC (A. niger) [µg/mL]	MIC (A. terreus 49) [µg/mL]	MIC (A. terreus) [µg/mL]	MIC ([1]; Scedosporium apiospermum, 13486) [µg/mL]	MIC [2] [µg/mL]	MIC [3] [µg/mL]	MIC [4] [µg/mL]	MIC [5] [µg/mL]	MIC [6] [µg/mL]	MIC [7] [µg/mL]	MIC [8] [µg/mL]	MIC [9] [µg/mL]	MIC [10] [µg/mL]	MIC Scedosporium apiospermum 13486 [1]
Cc1cc(C)nc(N2CCN(c3ccc(NC(=O)C(=O)c4c(-c5ccccc5)cc(C)n4C)c(Cl)c3)CC2)c1 [Ref. Example 8, N-{2-Chloro-4-[4-(4,6-dimethyl-pyridin-2-yl)-piperazin-1-yl]-phenyl}-2-(1,5-dimethyl-3-phenyl-1H-pyrrol-2-yl)-2-oxo-acetamide]	0.04 to 0.06 (≈ 0.0738 to 0.111 µM)	0.04 to 0.06 (≈ 0.0738 to 0.111 µM)	0.04 to 0.06 (≈ 0.0738 to 0.111 µM)	0.04 to 0.06 (≈ 0.0738 to 0.111 µM)	0.04 to 0.06 (≈ 0.0738 to 0.111 µM)	0.04 to 0.06 (≈ 0.0738 to 0.111 µM)											
Cc1cc(C)nc(N2CCN(c3ccc(NC(=O)C(=O)c4c(-c5ccccc5)cc(C)n4C)cc3C)CC2)c1 [Ref. Example 3, 2-(1,5-Dimethyl-3-phenyl-1H-pyrrol-2-yl)-N-{4-[4-(4,6-dimethyl-pyridin-2-yl)-piperazin-1-yl]-3-methyl-phenyl}-2-oxo-acetamide]	0.04 to 0.06 (≈ 0.0767 to 0.115 µM)	0.04 to 0.06 (≈ 0.0767 to 0.115 µM)	0.04 to 0.06 (≈ 0.0767 to 0.115 µM)	0.04 to 0.06 (≈ 0.0767 to 0.115 µM)	0.04 to 0.06 (≈ 0.0767 to 0.115 µM)	0.04 to 0.06 (≈ 0.0767 to 0.115 µM)											
[2H]c1c([2H])c(N2CCN(c3ncc(F)cn3)CC2)c([2H])c([2H])c1NC(=O)C(=O)c1c(-c2ccccc2)cc(C)n1C [Example 4, 2-(1,5-dimethyl-3-phenyl-1H-pyrrol-2-yl)-N-(4-(4-(5-fluoropyrimidin-2-yl)piperazin-1-yl)phenyl-2,3,5,6-d4)-2-oxoacetamide]	0.04 to 0.06 (≈ 0.0796 to 0.119 µM)	0.04 to 0.06 (≈ 0.0796 to 0.119 µM)	0.04 to 0.06 (≈ 0.0796 to 0.119 µM)	0.04 to 0.06 (≈ 0.0796 to 0.119 µM)	0.04 to 0.06 (≈ 0.0796 to 0.119 µM)	0.04 to 0.06 (≈ 0.0796 to 0.119 µM)											
Cc1cc(-c2ccccc2)c(C(=O)C(=O)Nc2ccc(N3CCN(c4ccccn4)CC3)cc2)n1C [Ref. Example 6, 2-(1,5-Dimethyl-3-phenyl-1H-pyrrol-2-yl)-2-oxo-N-[4-(4-pyridin-2-yl-piperazin-1-yl)-phenyl]-acetamide]	0.04 to 0.06 (≈ 0.0834 to 0.125 µM)	0.04 to 0.06 (≈ 0.0834 to 0.125 µM)	0.04 to 0.06 (≈ 0.0834 to 0.125 µM)	> 0.06	0.04 to 0.06 (≈ 0.0834 to 0.125 µM)	0.04 to 0.06 (≈ 0.0834 to 0.125 µM)	> 0.06	> 0.06	> 0.06	> 0.06	> 0.06	> 0.06	> 0.06	> 0.06	> 0.06	> 0.06	F (a grade of F represents an MIC of greater than 0.06 mg/L)
[2H]C1([2H])N(c2ccc(NC(=O)C(=O)c3c(-c4ccccc4)cc(C)n3C)cc2)C([2H])([2H])C([2H])([2H])N(c2ncc(F)cn2)C1([2H])[2H] [Example 3, 2-(1,5-dimethyl-3-phenyl-1H-pyrrol-2-yl)-N-(4-(4-(5-fluoropyrimidin-2-yl)piperazin-1-yl-2,2,3,3,5,5,6,6-d8)phenyl)-2-oxoacetamide]	0.04 to 0.06 (≈ 0.079 to 0.118 µM)	0.04 to 0.06 (≈ 0.079 to 0.118 µM)	0.04 to 0.06 (≈ 0.079 to 0.118 µM)	0.04 to 0.06 (≈ 0.079 to 0.118 µM)	0.04 to 0.06 (≈ 0.079 to 0.118 µM)	0.04 to 0.06 (≈ 0.079 to 0.118 µM)											

The next lines start with results.

MIC (A. flavus) [µg/mL]	MIC (A. fumigatus 210) [µg/mL]	MIC (A. fumigatus) [µg/mL]	MIC (A. niger) [µg/mL]	MIC (A. terreus 49) [µg/mL]	MIC (A. terreus) [µg/mL]	MIC ([1]; Scedosporium apiospermum, 13486) [µg/mL]	MIC [2] [µg/mL]	MIC [3] [µg/mL]	MIC [4] [µg/mL]	MIC [5] [µg/mL]	MIC [6] [µg/mL]	MIC [7] [µg/mL]	MIC [8] [µg/mL]	MIC [9] [µg/mL]	MIC [10] [µg/mL]	Structure (SMILES)	MIC Scedosporium apiospermum 13486 [1]
0.04 to 0.06 (≈ 0.081 to 0.122 µM)	0.04 to 0.06 (≈ 0.081 to 0.122 µM)	0.04 to 0.06 (≈ 0.081 to 0.122 µM)	> 0.06	0.04 to 0.06 (≈ 0.081 to 0.122 µM)	0.04 to 0.06 (≈ 0.081 to 0.122 µM)											Cc1cccc(N2CCN(c3ccc(NC(=O)C(=O)c4c(-c5ccccc5)cc(C)n4C)cc3)CC2)n1 [Ref. Example 5, 2-(1,5-Dimethyl-3-phenyl-1H-pyrrol-2-yl)-N-{4-[4-(6-methyl-pyridin-2-yl)-piperazin-1-yl]-phenyl}-2-oxo-acetamide]	
0.04 to 0.06 (≈ 0.0764 to 0.115 µM)	> 0.06	> 0.06	> 0.06	> 0.06	> 0.06											Cc1cc(C)nc(N2CCN(c3ccc(NC(=O)C(=O)c4c(-c5ccccc5)cc(C)n4C)cc3O)CC2)c1 [Ref. Example 7, 2-(1,5-Dimethyl-3-phenyl-1H-pyrrol-2-yl)-N-{4-[4-(4,6-dimethyl-pyridin-2-yl)-piperazin-1-yl]-3-hydroxy-phenyl}-2-oxo-acetamide]	
0.04 to 0.06 (≈ 0.0804 to 0.121 µM)	0.04 to 0.06 (≈ 0.0804 to 0.121 µM)	0.04 to 0.06 (≈ 0.0804 to 0.121 µM)	0.04 to 0.06 (≈ 0.0804 to 0.121 µM)	0.04 to 0.06 (≈ 0.0804 to 0.121 µM)	0.04 to 0.06 (≈ 0.0804 to 0.121 µM)											Cc1cc(-c2ccccc2)c(C(=O)C(=O)Nc2ccc(N3CCN(c4ccccn4)CC3)cc2F)n1C [Ref. Example 2, 2-(1,5-Dimethyl-3-phenyl-1H-pyrrol-2-yl)-N-[2-fluoro-4-(4-pyridin-2-yl-piperazin-1-yl)-phenyl]-2-oxo-acetamide]	
0.04 to 0.06 (≈ 0.0738 to 0.111 µM)	0.04 to 0.06 (≈ 0.0738 to 0.111 µM)	0.04 to 0.06 (≈ 0.0738 to 0.111 µM)	0.04 to 0.06 (≈ 0.0738 to 0.111 µM)	0.04 to 0.06 (≈ 0.0738 to 0.111 µM)	0.04 to 0.06 (≈ 0.0738 to 0.111 µM)											Cc1cc(C)nc(N2CCN(c3ccc(NC(=O)C(=O)c4c(-c5ccccc5)cc(C)n4C)cc3Cl)CC2)c1 [Ref. Example 9, N-{3-Chloro-4-[4-(4,6-dimethyl-pyridin-2-yl)-piperazin-1-yl]-phenyl}-2-(1,5-dimethyl-3-phenyl-1H-pyrrol-2-yl)-2-oxo-acetamide]	
> 0.06	0.04 to 0.06 (≈ 0.0804 to 0.121 µM)	0.04 to 0.06 (≈ 0.0804 to 0.121 µM)	0.04 to 0.06 (≈ 0.0804 to 0.121 µM)	0.04 to 0.06 (≈ 0.0804 to 0.121 µM)	0.04 to 0.06 (≈ 0.0804 to 0.121 µM)											Cc1cc(-c2ccccc2)c(C(=O)C(=O)Nc2ccc(N3CCN(c4ccccn4)CC3)c(F)c2)n1C [Ref. Example 1, 2-(1,5-Dimethyl-3-phenyl-1H-pyrrol-2-yl)-N-[3-fluoro-4-(4-pyridin-2-yl-piperazin-1-yl)-phenyl]-2-oxo-acetamide]	
0.04 to 0.06 (≈ 0.081 to 0.122 µM)	0.04 to 0.06 (≈ 0.081 to 0.122 µM)	0.04 to 0.06 (≈ 0.081 to 0.122 µM)	0.04 to 0.06 (≈ 0.081 to 0.122 µM)	0.04 to 0.06 (≈ 0.081 to 0.122 µM)	0.04 to 0.06 (≈ 0.081 to 0.122 µM)											Cc1ccnc(N2CCN(c3ccc(NC(=O)C(=O)c4c(-c5ccccc5)cc(C)n4C)cc3)CC2)c1 [Ref. Example 4, 2-(1,5-Dimethyl-3-phenyl-1H-pyrrol-2-yl)-N-{4-[4-(4-methyl-pyridin-2-yl)-piperazin-1-yl]-phenyl}-2-oxo-acetamide]	
